For series [1] the following is noted: from C=CCCCCCC(NC(=O)OC(C)(C)C)C(=O)N1CC(Oc2nc(-c3cc(C)nn3C)nc3ccsc23)CC1C(=O)NC1(C(=O)OC)CC1C=C; rcm bond; 15-membered ring; Grubbs II (0.15 equiv); DCM; 5.0 mM; 40.0 °C; 2.0 h.
Series [2] has as its system HCV dual reporter subgenomic replicon (B6b cell line). Nature of the series: HCV dual reporter subgenomic replicon assay, Renilla luciferase (antiviral activity). It counts as cell-based. The following applies: Hepatitis C virus, 72 h; 50% reduction of Renilla luciferase expression, 3 days incubation. The protocol: The compounds described herein were tested for antiviral activity utilizing a dual-reporter replicon assay as described in U.S. patent application Ser. No. 10/818,075 (the '075 application), filed Apr. 5, 2004. The disclosure of the '075 application is incorporated herein.
(§1) Cell-based antiviral activity was evaluated in the previously described HCV dual reporter subgenomic replicon system (the '075 application). With this system, the effects of a compound on both HCV replication and cell viability can be simultaneously determined by measuring the intracellular levels of two separate reporter proteins. The dicistronic selectable replicon contains the Renilla luciferase gene such that Renilla luciferase activity within stably-transfected cells serves as a marker of HCV replication. The firefly luciferase gene is stably integrated into and expressed by the Huh-7 host cells. Since firefly luciferase activity is dependent upon cellular transcription and translation, firefly luciferase activity serves as an indicator of cell viability.
(§2) The dual reporter selectable replicon cell line (B6b) was maintained in DMEM supplemented with 10% FBS, L-glutamine, non-essential amino acids, penicillin, streptomycin, and selection agents (200 ug/ml G418 and 6 ug/ml blastocidin). On the first day of the experiment, cells were trypsinized, washed, and diluted in medium lacking the selection agents. Cells were transferred to 96-well, black-walled, clear bottom plates at a density of 2×10^4 cells in 150 ul of medium per well. Cells were allowed to settle for 60 to 90 minutes while compounds were being prepared. Each compound was initially diluted to a 4× working stock (2.56% DMSO in tissue culture medium) that was then serially diluted nine times in half log increments in medium with 2.56% DMSO. Fifty microliters of each dilution were then added in triplicate to the plated cells in order to obtain final IX compound concentrations with 0.64% DMSO. Typical testing concentrations ranged from 320 uM to 10 nM. Control wells containing 0.64% DMSO without compound were also included on each plate.
(§3) After 3 days of incubation under humidity at 37° C. with 5% CO2, plates were microscopically examined for compound precipitation and cell death. Tissue culture medium was then aspirated and cells were lysed with 20 ul of 1× Passive Lysis Buffer (Promega, Madison, Wis.). Reporter activity was measured using a MicroBeta Jet 1450 (Perkin Elmer, Boston, Mass.) following sequential 50 ul additions of firefly and Renilla luciferase substrates as described in the manufacturers protocol (Promega). Luciferase activities were expressed as a percentage of the signals observed in the compound-free control wells. The amount of compound required to reduce Renilla luciferase expression by 50% is defined as the 50% effective concentration, or EC50. The amount of compound that reduces firefly luciferase expression by 50% is defined as the 50% cytotoxic concentration, or CC50. A therapeutic index (TI) is calculated by dividing the CC50 by the EC50.

Series [3] addresses T1, full-length NS3-NS4A enzyme (Hepatitis C virus genotype 1a, UniProt P27958).
T1 construct: 3 nM full-length NS3-NS4A enzyme
The series can be described thus: HCV protease assay (continuous FRET, full-length enzyme). It is filed as biochemical. The following applies: 3 nM full-length NS3-NS4A, 3 uM depsipeptide FRET substrate S1; competitive inhibition fit. On the procedure: HCV protease activity and compound inhibition was monitored using a continuous, fluorescence resonance energy transfer (FRET) assay. Test compounds at various concentrations were added to assay buffer (50 mM MOPS pH 7.5, 50 mM NaCl, 20% glycerol, 0.025% Triton-X 100, 1 mM tris(2-carboxyethyl)phosphine) containing 3 uM depsipeptide FRET substrate S1 (Anaspec) (see Taliani et al. Analytical Biochemistry, 240, 60-67 (1996)) in a white, non-binding 96-well plate (Corning). The reaction was started by the addition of 3 nM full-length NS3-NS4A enzyme. The increase in fluorescence intensity following peptide cleavage was monitored using a Safire fluorescence plate reader (Tecan). The excitation and emission wavelengths were 340 nm and 500 nm, respectively. Inhibition constants (KI) were calculated by non-linear regression analysis using an equation derived for competitive inhibition.

Series [4] can be described thus: in vitro. It counts as cell-based. Particulars: human; 50% reduction of firefly luciferase expression, 3 days incubation; read-out: Replicon CC50. The protocol:
as §1, §2, §3

“And” between values parts separate entries of the source, which are not always exact repeats. Equal values may be shown once.

T1 sequence (P27958 1027-1657): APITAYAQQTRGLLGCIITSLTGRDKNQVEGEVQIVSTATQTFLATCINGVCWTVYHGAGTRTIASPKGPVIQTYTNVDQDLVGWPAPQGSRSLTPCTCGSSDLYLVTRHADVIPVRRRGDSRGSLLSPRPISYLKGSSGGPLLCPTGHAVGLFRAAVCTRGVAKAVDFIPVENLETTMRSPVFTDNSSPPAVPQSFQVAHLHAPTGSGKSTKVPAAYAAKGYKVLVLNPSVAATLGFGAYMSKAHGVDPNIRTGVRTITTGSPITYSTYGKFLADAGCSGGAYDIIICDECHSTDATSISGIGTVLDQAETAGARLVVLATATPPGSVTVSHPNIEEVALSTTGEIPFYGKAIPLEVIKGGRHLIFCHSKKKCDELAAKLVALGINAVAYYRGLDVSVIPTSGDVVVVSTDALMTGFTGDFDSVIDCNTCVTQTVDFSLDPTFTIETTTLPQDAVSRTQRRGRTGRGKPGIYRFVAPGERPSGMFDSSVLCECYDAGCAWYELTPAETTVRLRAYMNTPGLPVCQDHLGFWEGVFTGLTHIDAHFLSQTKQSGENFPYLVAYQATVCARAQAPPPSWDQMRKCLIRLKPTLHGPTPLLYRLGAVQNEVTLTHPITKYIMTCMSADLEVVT
T1 sequence (P27958 1658-1711): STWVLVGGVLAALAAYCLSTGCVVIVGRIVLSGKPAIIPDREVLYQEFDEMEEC

As for `COC(=O)[C@@]12C[C@H]1/C=C\CCCCC[C@H](NC(=O)OC(C)(C)C)C(=O)N1C[C@H](Oc3nc(-c4cc(C)nn4C)nc4ccsc34)C[C@H]1C(=O)N2`, the ring closure, isolated yield in series [1] came out at 38%.

For the compound `O=C(CC1CC1)N[C@H]1CCCCC/C=C\[C@@H]2C[C@@]2(C(=O)O)NC(=O)[C@@H]2C[C@@H](Oc3nc(-c4ccccn4)nc4ccsc34)CN2C1=O` [Example 46, (2R,6S,12Z,13aS,14aR,16aS)-6-[(Cyclopropylacetyl)amino]-5,16-dioxo-2-[(2-pyridin-2-ylthieno[3,2-d]pyrimidin-4-yl)oxy]-1,2,3,6,7,8,9,10,11,13a,14,15,16,16a-tetradecahydrocyclopropa[e]pyrrolo[1,2-a][1,4]diazacyclopentadecine-14a(5H)-carboxylic acid], a half-maximal response in series [2] (EC50) required 92 nM. Further, the Ki (in general, a measure of affinity in units of concentration, obtained from inhibition or displacement) in series [3] is 15 nM. Further, the CC50 (usually the concentration that lowers cell viability or growth by half) at 3 days in series [4] is more than 320000 nM.

`Cc1cc(-c2nc(O[C@@H]3C[C@H]4C(=O)N[C@]5(C(=O)O)C[C@H]5/C=C\CCCCC[C@H](NC(=O)OC5CCCC5)C(=O)N4C3)c3sccc3n2)n(C)n1` [Example 58, (2R,6S,12Z,13aS,14aR,16aS)-6-{[(Cyclopentyloxy)carbonyl]amino}-2-{[2-(1,3-dimethyl-1H-pyrazol-5-yl)thieno[3,2-d]pyrimidin-4-yl]oxy}-5,16-dioxo-1,2,3,6,7,8,9,10,11,13a,14,15,16,16a-tetradecahydrocyclopropa[e]pyrrolo[1,2-a][1,4]diazacyclopentadecine-14a(5H)-carboxylic acid]: a half-maximal response in series [2] (EC50) required 62 nM. The compound also registered a Ki in series [3] of 2.3 nM. Also, the CC50 at 3 days in series [4] was 216000 nM.

As to `Cc1cc(-c2nc(O[C@@H]3C[C@H]4C(=O)N[C@]5(C(=O)O)C[C@H]5/C=C\CCCCC[C@H](NC(=O)OC5CCC5)C(=O)N4C3)c3sccc3n2)n(C)n1` [Example 60, (2R,6S,12Z,13aS,14aR,16aS)-6-{[(Cyclobutyloxy)carbonyl]amino}-2-{[2-(1,3-dimethyl-1H-pyrazol-5-yl)thieno[3,2-d]pyrimidin-4-yl]oxy}-5,16-dioxo-1,2,3,6,7,8,9,10,11,13a,14,15,16,16a-tetradecahydrocyclopropa[e]pyrrolo[1,2-a][1,4]diazacyclopentadecine-14a(5H)-carboxylic acid], the half-maximal effective concentration (EC50) – broadly, the concentration that produces a half-maximal response – in series [2] amounted to 700 nM. In series [3], this compound yielded a Ki of 6.7 nM. The CC50 at 3 days in series [4] was determined as 222000 nM.

In the case of `Cc1cc(-c2nc(O[C@@H]3C[C@H]4C(=O)N[C@]5(C(=O)O)C[C@H]5/C=C\CCCCC[C@H](NC(=O)OC(C)(C)C)C(=O)N4C3)c3sccc3n2)n(C)n1` [Example 61, (2R,6S,12Z,13aS,14aR,16aS)-6-[(Tert-butoxycarbonyl)amino]-2-{[2-(1,3-dimethyl-1H-pyrazol-5-yl)thieno[3,2-d]pyrimidin-4-yl]oxy}-5,16-dioxo-1,2,3,6,7,8,9,10,11,13a,14,15,16,16a-tetradecahydrocyclopropa[e]pyrrolo[1,2-a][1,4]diazacyclopentadecine-14a(5H)-carboxylic acid], in series [2], the concentration for a half-maximal effect (EC50) was 870 nM. Also, the inhibition constant (Ki) in series [3] was 11.3 nM. Moreover, the CC50 at 3 days in series [4] turned out to be 244000 nM.

In the case of `Cc1cc(-c2nc(O[C@@H]3C[C@H]4C(=O)N[C@]5(C(=O)O)C[C@H]5/C=C\CCCCC[C@H](NC(=O)CC5CC5)C(=O)N4C3)c3sccc3n2)n(C)n1` [Example 63, (2R,6S,12Z,13aS,14aR,16aS)-6-[(cyclopropylacetyl)amino]-2-{[2-(1,3-dimethyl-1H-pyrazol-5-yl)thieno[3,2-d]pyrimidin-4-yl]oxy}-5,16-dioxo-1,2,3,6,7,8,9,10,11,13a,14,15,16,16a-tetradecahydrocyclopropa[e]pyrrolo[1,2-a][1,4]diazacyclopentadecine-14a(5H)-carboxylic acid], the EC50 in series [2] is 11 nM. For the same compound, the affinity in series [3] corresponds to a Ki of 8.1 nM. Besides, the CC50 at 3 days in series [4] is more than 320000 nM.

Consider `Cc1cc(-c2nc(O[C@@H]3C[C@H]4C(=O)N[C@]5(C(=O)O)C[C@H]5/C=C\CCCCC[C@H](NC(=O)O[C@H]5CCOC5)C(=O)N4C3)c3sccc3n2)n(C)n1` [Example 65, (2R,6S,12Z,13aS,14aR,16aS)-2-{[2-(1,3-Dimethyl-1H-pyrazol-5-yl)thieno[3,2-d]pyrimidin-4-yl]oxy}-5,16-dioxo-6-({[(3S)-tetrahydrofuran-3-yloxy]carbonyl}amino)-1,2,3,6,7,8,9,10,11,13a,14,15,16,16a-tetradecahydrocyclopropa[e]pyrrolo[1,2-a][1,4]diazacyclopentadecine-14a(5H)-carboxylic acid], for which, in series [2], the EC50 is 2600 nM. Besides, the Ki in series [3] was 10.3 nM and 7.9 nM. Besides, the CC50 at 3 days in series [4] is more than 320000 nM.

`CC(C)Nc1cccc(-c2nc(O[C@@H]3C[C@H]4C(=O)N[C@]5(C(=O)O)C[C@H]5/C=C\CCCCC[C@H](NC(=O)OC(C)(C)C)C(=O)N4C3)c3sccc3n2)n1` [Example 79, (2R,6S,12Z,13aS,14aR,16aS)-6-[(Tert-butoxycarbonyl)amino]-2-({2-[6-(isopropylamino)pyridin-2-yl]thieno[3,2-d]pyrimidin-4-yl}oxy)-5,16-dioxo-1,2,3,6,7,8,9,10,11,13a,14,15,16,16a-tetradecahydrocyclopropa[e]pyrrolo[1,2-a][1,4]diazacyclopentadecine-14a(5H)-carboxylic acid]: the EC50 in series [2] turned out to be 180 nM. The Ki in series [3] was determined as 11.3 nM. The CC50 at 3 days in series [4] was 212000 nM.

In turn, `Cn1ccnc1-c1cc2nccc(O[C@@H]3C[C@H]4C(=O)N[C@]5(C(=O)O)C[C@H]5/C=C\CCCCC[C@H](NC(=O)OC(C)(C)C)C(=O)N4C3)c2s1` [Example 86, (2R,6S,12Z,13aS,14aR,16aS)-6-[(tert-butoxycarbonyl)amino]-2-{[2-(1-methyl-1H-imidazol-2-yl)thieno[3,2-b]pyridin-7-yl]oxy}-5,16-dioxo-1,2,3,6,7,8,9,10,11,13a,14,15,16,16a-tetradecahydrocyclopropa[e]pyrrolo[1,2-a][1,4]diazacyclopentadecine-14a(5H)-carboxylic acid] displayed an EC50 in series [2] of 15000 nM. This compound displayed a Ki in series [3] of 69 nM. Besides, in series [4], the 50% cytotoxic concentration (CC50) at 3 days is more than 320000 nM.

For the compound `Cn1ccnc1-c1cc2nccc(O[C@@H]3C[C@H]4C(=O)N[C@]5(C(=O)O)C[C@H]5/C=C\CCCCC[C@H](NC(=O)OC5CCCC5)C(=O)N4C3)c2s1` [Example 89, (2R,6S,12Z,13aS,14aR,16aS)-6-{[(Cyclopentyloxy)carbonyl]amino}-2-{[2-(1-methyl-1H-imidazol-2-yl)thieno[3,2-b]pyridin-7-yl]oxy}-5,16-dioxo-1,2,3,6,7,8,9,10,11,13a,14,15,16,16a-tetradecahydrocyclopropa[e]pyrrolo[1,2-a][1,4]diazacyclopentadecine-14a(5H)-carboxylic acid], it took 500 nM to reach a half-maximal effect in series [2] (EC50). In series [3], the Ki is 14 nM and 13 nM. Moreover, in series [4], the CC50 at 3 days is more than 320000 nM.

On to `Cn1ccnc1-c1cc2nccc(O[C@@H]3C[C@H]4C(=O)N[C@]5(C(=O)O)C[C@H]5/C=C\CCCCC[C@H](NC(=O)CC5CC5)C(=O)N4C3)c2s1` [Example 91, (2R,6S,12Z,13aS,14aR,16aS)-6-[(Cyclopropylacetyl)amino]-2-{[2-(1-methyl-1H-imidazol-2-yl)thieno[3,2-b]pyridin-7-yl]oxy}-5,16-dioxo-1,2,3,6,7,8,9,10,11,13a,14,15,16,16a-tetradecahydrocyclopropa[e]pyrrolo[1,2-a][1,4]diazacyclopentadecine-14a(5H)-carboxylic acid], for which, in series [2], the EC50 was 290 nM. Besides, the Ki in series [3] was 91 nM and 70 nM. Also, in series [4], the CC50 at 3 days is more than 320000 nM.

Values taken from US20070249637A1, “Inhibitors Of Hepatitis C Virus Protease, And Compositions And Treatments Using The Same” (priority 2004, published 2007).
